How the values were obtained:
porcine airway = experiment: Ex vivo porcine airway models (summary statement)
From the text: Abnormal mucus accumulation in airways has deleterious, and fatal consequence in patients suffering from respiratory obstructive diseases, such as cystic fibrosis (CF), COPD and asthma. Therefore, there is a need for therapies aimed at decreasing mucus accumulation to facilitate airway mucus clearance.

[1] = test system: Muc5ac mucin from porcine airway mucus; experiment: Mucolytic effect on Muc5ac mucin from porcine airway mucus (western blot, densitometry); type: biochemical; details: 2 mM, 30 mins at 37° C.; compound preincubated in HCO3-Ringer, HCO3-Ringer/acetic acid or acetate buffer pH 4.5
Experimental: (§1) (Upper panel) Identification of Muc5ac mucin (black arrow) by western blot, from airway mucus sample collected in HCO3-Ringer and treated with or without 2 mM of compound 646 for 30 mins at 37° C. Lane CTRL, untreated sample as control. Lane Bic, sample treated with compound preincubated in HCO3-Ringer; lane Bic/Ac, sample treated with compound preincubated with 1:1 HCO3-Ringer/Acetic acid 0.1N; lane Ac, sample treated with compound preincubated in acetate buffer 1M, pH 4.5. Lower panel, densitometric analysis of the protein bands identified with the Muc5ac mucin antibody. Densitometric signal of the sample control (CTRL) was normalized as 100% (% arbitrary units).
as §1, with “647” for “646”, “4.5, as described under Methods.” for “4.5.”, “units). Control is pH 8, Bic 7.4, Bic/AC 6.9 AND AC 6.2” for “units).”
as §1, with “655” for “646”
as §1, with “compounds 656” for “compound 646”

[2] = test system: porcine gastric mucin extract (50 kDa band matched to Muc5ac mucin); experiment: Mucolytic activity on gastric mucin (electrophoresis, Coomassie stain); type: biochemical; details: for 50 kDa protein band of gastric mucin extract: 37° C., 60 minutes, versus untreated extract, hydrochloride
Experimental: FIG. 7 presents the effects of cysteamine bitartrate and compound 646 on porcine gastric mucin extract. One hundred microliters of gastric mucin extract (5 mg/mL) was incubated with and without cysteamine bitartrate and compound 646 separately, at 37° C. for 60 minutes.
Gastric Mucin extract solution: Mucin was prepared as stock solution of 5 mg/mL in water, in NaCl Ringer (150 mM Na^+, 4.6 mM K^+, 1 mM Ca^2+, 1 mM Mg^2+, 150 mM Cl^−, 2.5 mM PO4^x− and 10 mM glucose) pH 7.2, and in HCO3-Ringer solution (150 mM Na^+, 4.6 mM K^+, 1 mM Ca^2+, 1 mM Mg^2+, […] HCO3^−, 2.5 mM PO4^x− and 10 mM glucose) pH 8.
Mucolytic activity on gastric mucin. One hundred microliters of mucin solution were incubated with Cysteamine bitartrate or compound 646 at final concentrations from 0 to 2 mM as indicated in the text. Mixture was incubated at 37° C. for 0-1 hr. Mucolytic activity was ended with 30 microliters of SDS-sample buffer solution. Forty-five microliters of each sample/well were separated in an electrophoresis gel 4-12% Tris-Glycine. After electrophoresis gels were stained with Coomassie Blue solution.
In vitro mucolytic activity of cysteamine bitartrate and compound 646. To evaluate the mucolytic activity of cysteamine bitartrate and 2-aminoethane-1-d-1-thiol hydrochloride (Compound 646), gastric mucin extract was used as a substrate that was treated with 200 and 400 μM of cysteamine bitartrate or Compound 646 respectively.
Mass spectrometry analysis of the isolated 50 kDa protein band. Muc5ac and Muc6 mucins are two major secretory mucins found in the stomach. In order identify which of these mucins were part of the 50 kDa band, mass spectrometry was utilized. Mass spectrometry analysis of the 50 kDa protein band identified 17 unique peptides that matched with porcine Muc5ac mucin.

2-aminoethane-1-d-1-thiol hydrochloride [Compound 646]
accumulation of viscous mucus and mucociliary clearance (porcine airway): prevented accumulation of viscous mucus and improves mucociliary clearance
influence of acidic and basic conditions on mucolytic activity on porcine Muc5ac mucin [1]: enhanced under acidic conditions
50 kDa protein band of gastric mucin extract ([2]; 200 μM): decrease in the 50 kDa protein band
50 kDa protein band of gastric mucin extract ([2]; 400 μM): decrease in the 50 kDa protein band
anti-mucin effect against gastric mucin, Muc5ac in particular ([2]; summary of FIG. 7 and FIG. 8): anti-mucin effect against gastric mucin
